Test results taken from patent US6914045B2, “Glycopeptide antibiotics” (Wyeth Holdings Corporation, priority 2001, dated 2005).
In brackets after ≈: the same amount, converted by molar mass.

Key:
Assay in all cases: in vitro antibacterial evaluation, MIC by broth dilution
Assay type in all cases: cell-based
[1] = test system: Enterococcus sp.; conditions: broth dilution, 18 hours at 35° C.
Experimental: (§1) Methods for in vitro Antibacterial Evaluation (Table 1)
(§2) The minimum inhibitory concentration (MIC), the lowest concentration of the antibiotic which inhibits growth of the test organism, is determined by the broth dilution method using Muller-Hinton II […] (Baltimore Biological Laboratories) following the recommendations of the National Committee for Clinical Laboratory Standards [Methods for dilution antimicrobial susceptibility tests for bacteria that grow aerobically, approved standard M7-A2, National Committee for Clinical Laboratory Standards, Villanova, Pa.].
(§3) An inoculum level of 5×10^5 CFU/mL, and a range of antibiotic concentrations (64-0.06 μg/mL) is used. […] The test organisms include a spectrum of Gram-positive bacteria comprised of Staphylococcus sp., Streptococcus sp. and Enterococcus sp. These organisms include recent clinical isolates that are resistant to methicillin, penicillin and/or vancomycin.

[2] = test system: Staphylococcus sp.; conditions: broth dilution, 18 hours at 35° C.
Experimental: as §1, §2, §3

[3] = test system: Streptococcus sp.; conditions: broth dilution, 18 hours at 35° C.
Experimental: as §1, §2, §3

[4] = test system: Escherichia coli; conditions: 18 hours at 35° C.
Experimental: as §2, §3

Question: Which “MIC Enterococcus avium (GC 4558)” value [1] does the source give for `CC(c1ccccc1)C1NC(=O)CNC(=O)C(CO)NC(=O)C(C(O)C2CNC(=N)N2C2OC(CO)C(O)C(O)C2O)NC(=O)C(C(O)C2CNC(=N)N2)NC(=O)C(Cc2ccc(OC3OC(CO)C(OC4OC5COC6(CCC(C(C)(C)C)CC6)OC5C(O)C4O)C(O)C3O)cc2)NC1=O` (stereo not shown) [Example 208] here?
Answer: The value was 4 µg/mL (≈ 2.79 µM).

Question: What about the “MIC Enterococcus faecalis (ATCC 29212)” value [1] of the same compound?
Answer: The value was 8 µg/mL (≈ 5.59 µM).

Question: And the “MIC Enterococcus faecalis (GC 2242)” value [1]?
Answer: Its value is 8 µg/mL (≈ 5.59 µM).

Question: What about the “MIC Enterococcus faecalis (GC 2691)” value [1] of the same compound?
Answer: Its value is 8 µg/mL (≈ 5.59 µM).

Question: And the “MIC Enterococcus faecalis (GC 3059)” value [1]?
Answer: Its value is 8 µg/mL (≈ 5.59 µM).

Question: What about the “MIC Enterococcus faecalis (GC 4552)” value [1] of the same compound?
Answer: The value was 8 µg/mL (≈ 5.59 µM).

Question: What about the “MIC Enterococcus faecalis (GC 4553)” value [1] of the same compound?
Answer: The value was 8 µg/mL (≈ 5.59 µM).

Question: And the “MIC Enterococcus faecalis (GC 4554)” value [1]?
Answer: Its value is 8 µg/mL (≈ 5.59 µM).

Question: And the “MIC Enterococcus faecalis (GC 6189)” value [1]?
Answer: The value was 8 µg/mL (≈ 5.59 µM).

Question: What about the “MIC Enterococcus faecium (GC 2243)” value [1] of the same compound?
Answer: The value was 8 µg/mL (≈ 5.59 µM).

Question: And the “MIC Enterococcus faecium (GC 4556)” value [1]?
Answer: Its value is 8 µg/mL (≈ 5.59 µM).

Question: What about the “MIC Enterococcus faecium (GC 4557)” value [1] of the same compound?
Answer: The value was 8 µg/mL (≈ 5.59 µM).

Question: What about the “MIC Enterococcus faecalis (ATCC 29212)” value ([1]; inoculum 5×10^5 CFU/mL, strain ATCC 29212) of the same compound?
Answer: Its value is 8 µg/mL (≈ 5.59 µM).

Question: What about the “MIC Enterococcus faecalis (GC 2242)” value ([1]; inoculum 5×10^5 CFU/mL, strain GC 2242) of the same compound?
Answer: The value was 8 µg/mL (≈ 5.59 µM).

Question: And the “MIC Enterococcus faecium (GC 2243)” value ([1]; inoculum 5×10^5 CFU/mL, strain GC 2243)?
Answer: Its value is 8 µg/mL (≈ 5.59 µM).

Question: And the “MIC Enterococcus faecalis (GC 2691)” value ([1]; inoculum 5×10^5 CFU/mL, strain GC 2691)?
Answer: The value was 8 µg/mL (≈ 5.59 µM).

Question: And the “MIC Enterococcus faecalis (GC 3059)” value ([1]; inoculum 5×10^5 CFU/mL, strain GC 3059)?
Answer: The value was 8 µg/mL (≈ 5.59 µM).

Question: And the “MIC Enterococcus faecalis (GC 4552)” value ([1]; inoculum 5×10^5 CFU/mL, strain GC 4552)?
Answer: The value was 8 µg/mL (≈ 5.59 µM).

Question: And the “MIC Enterococcus faecalis (GC 4553)” value ([1]; inoculum 5×10^5 CFU/mL, strain GC 4553)?
Answer: Its value is 8 µg/mL (≈ 5.59 µM).

Question: And the “MIC Enterococcus faecalis (GC 4554)” value ([1]; inoculum 5×10^5 CFU/mL, strain GC 4554)?
Answer: The value was 8 µg/mL (≈ 5.59 µM).

Question: What about the “MIC Enterococcus faecium (GC 4556)” value ([1]; inoculum 5×10^5 CFU/mL, strain GC 4556) of the same compound?
Answer: The value was 8 µg/mL (≈ 5.59 µM).

Question: And the “MIC Enterococcus faecium (GC 4557)” value ([1]; inoculum 5×10^5 CFU/mL, strain GC 4557)?
Answer: Its value is 8 µg/mL (≈ 5.59 µM).

Question: And the “MIC Enterococcus avium (GC 4558)” value ([1]; inoculum 5×10^5 CFU/mL, strain GC 4558)?
Answer: The value was 4 µg/mL (≈ 2.79 µM).

Question: What about the “MIC Enterococcus faecalis (GC 6189)” value ([1]; inoculum 5×10^5 CFU/mL, strain GC 6189) of the same compound?
Answer: Its value is 8 µg/mL (≈ 5.59 µM).

Question: And the “MIC Staphylococcus aureus (ATCC 29213)” value ([2]; strain ATCC 29213)?
Answer: The value was 4 µg/mL (≈ 2.79 µM).

Question: What about the “MIC Staphylococcus aureus (GC 1131)” value ([2]; strain GC 1131) of the same compound?
Answer: The value was 8 µg/mL (≈ 5.59 µM).

Question: And the “MIC Staphylococcus aureus (GC 3051)” value ([2]; strain GC 3051)?
Answer: Its value is 4 µg/mL (≈ 2.79 µM).

Question: What about the “MIC Staphylococcus aureus (GC 3053)” value ([2]; strain GC 3053) of the same compound?
Answer: Its value is 4 µg/mL (≈ 2.79 µM).

Question: And the “MIC Staphylococcus aureus (GC 4541)” value ([2]; strain GC 4541)?
Answer: The value was 8 µg/mL (≈ 5.59 µM).

Question: And the “MIC Staphylococcus aureus (GC 4542)” value ([2]; strain GC 4542)?
Answer: The value was 4 µg/mL (≈ 2.79 µM).

Question: What about the “MIC Staphylococcus aureus-SMITH (GC 4543)” value ([2]; strain GC 4543) of the same compound?
Answer: The value was 4 µg/mL (≈ 2.79 µM).

Question: What about the “MIC Staphylococcus aureus (GC 4544)” value ([2]; strain GC 4544) of the same compound?
Answer: Its value is 8 µg/mL (≈ 5.59 µM).

Question: And the “MIC Staphylococcus aureus (GC 4545)” value ([2]; strain GC 4545)?
Answer: Its value is 4 µg/mL (≈ 2.79 µM).

Question: And the “MIC Staphylococcus haemolyticus (GC 4546)” value ([2]; strain GC 4546)?
Answer: Its value is 4 µg/mL (≈ 2.79 µM).

Question: What about the “MIC Coagulase Negative Staphylococcus (GC 4547)” value ([2]; strain GC 4547) of the same compound?
Answer: Its value is 4 µg/mL (≈ 2.79 µM).

Question: What about the “MIC Coagulase Negative Staphylococcus (GC 4548)” value ([2]; strain GC 4548) of the same compound?
Answer: Its value is 4 µg/mL (≈ 2.79 µM).

Question: And the “MIC Coagulase Negative Staphylococcus (GC 4549)” value ([2]; strain GC 4549)?
Answer: Its value is 4 µg/mL (≈ 2.79 µM).

Question: And the “MIC Coagulase Negative Staphylococcus (GC 4551)” value ([2]; strain GC 4551)?
Answer: Its value is 4 µg/mL (≈ 2.79 µM).

Question: And the “MIC Coagulase Negative Staphylococcus (GC 6257)” value ([2]; strain GC 6257)?
Answer: The value was 4 µg/mL (≈ 2.79 µM).

Question: And the “MIC Streptococcus agalactiae (GC 4564)” value [3]?
Answer: Its value is 0.12 µg/mL (≈ 0.0838 µM).

Question: And the “MIC Streptococcus pneumoniae (ATCC 6301)” value [3]?
Answer: The value was <0.06 µg/mL.

Question: And the “MIC Streptococcus pneumoniae (GC 1894)” value [3]?
Answer: The value was <0.06 µg/mL.

Question: What about the “MIC Streptococcus pneumoniae (GC 4565)” value [3] of the same compound?
Answer: Its value is <0.06 µg/mL.

Question: And the “MIC Streptococcus pyogenes (GC 4563)” value [3]?
Answer: Its value is 0.12 µg/mL (≈ 0.0838 µM).

Question: What about the “MIC Streptococcus pneumoniae (ATCC 6301)” value ([3]; inoculum 5×10^5 CFU/mL, strain ATCC 6301) of the same compound?
Answer: Its value is <0.06 µg/mL.

Question: What about the “MIC Streptococcus pneumoniae (GC 1894)” value ([3]; inoculum 5×10^5 CFU/mL, strain GC 1894) of the same compound?
Answer: Its value is <0.06 µg/mL.

Question: And the “MIC Streptococcus pyogenes (GC 4563)” value ([3]; inoculum 5×10^5 CFU/mL, strain GC 4563)?
Answer: The value was 0.12 µg/mL (≈ 0.0838 µM).

Question: And the “MIC Streptococcus agalactiae (GC 4564)” value ([3]; inoculum 5×10^5 CFU/mL, strain GC 4564)?
Answer: The value was 0.12 µg/mL (≈ 0.0838 µM).

Question: And the “MIC Streptococcus pneumoniae (GC 4565)” value ([3]; inoculum 5×10^5 CFU/mL, strain GC 4565)?
Answer: The value was <0.06 µg/mL.

Question: And the “MIC Escherichia coli (ATCC 25922)” value [4]?
Answer: Its value is 64 µg/mL (≈ 44.7 µM).

Question: And the “MIC Escherichia coli (GC 4559)” value [4]?
Answer: The value was >64 µg/mL.

Question: What about the “MIC Escherichia coli (GC 4560)” value [4] of the same compound?
Answer: Its value is 8 µg/mL (≈ 5.59 µM).
